The results in this text go back to paper PMC7044277 (Nature Communications, 2020).

Several values for one entry are separate records, joined by “and”; a condition that tells them apart may be missing. Identical values can stand only once.

Common to all, as to assay type: cell-based
What all share (parameters): GPCRome screening signal at PTGIR / GPCRome screening signal at PTH1R / GPCRome screening signal at PTH2R / GPCRome screening signal at QRFP / GPCRome screening signal at RXFP2 / GPCRome screening signal at RXFP3 / GPCRome screening signal at RXFP4 / GPCRome screening signal at S1PR2 / GPCRome screening signal at S1PR3 / GPCRome screening signal at S1PR4 / GPCRome screening signal at S1PR5 / GPCRome screening signal at SCTR / GPCRome screening signal at SSTR2 / GPCRome screening signal at SSSTR / GPCRome screening signal at SSTR4 / GPCRome screening signal at SSTR5 / GPCRome screening signal at SUCNR1 / GPCRome screening signal at TA1 / GPCRome screening signal at TAAR2 / GPCRome screening signal at TAAR5 / GPCRome screening signal at TAAR6 / GPCRome screening signal at TAAR8 / GPCRome screening signal at TACR1 / GPCRome screening signal at TACR2 / GPCRome screening signal at TACR3 / GPCRome screening signal at TBXA2R / GPCRome screening signal at TSHR / GPCRome screening signal at UTS2R / GPCRome screening signal at VIPR2 / GPCRome screening signal at GPR68 no V2 Tail / GPCRome screening signal at GRM2 / GPCRome screening signal at GRM3: reference not given here

The target of test [1] is 320 non-olfactory GPCRs (Homo sapiens, UniProt P30874). As to conditions: receptor SSTR2.
320 non-olfactory GPCRs (Homo sapiens, UniProt P30874), sequence (P30874 whole entry): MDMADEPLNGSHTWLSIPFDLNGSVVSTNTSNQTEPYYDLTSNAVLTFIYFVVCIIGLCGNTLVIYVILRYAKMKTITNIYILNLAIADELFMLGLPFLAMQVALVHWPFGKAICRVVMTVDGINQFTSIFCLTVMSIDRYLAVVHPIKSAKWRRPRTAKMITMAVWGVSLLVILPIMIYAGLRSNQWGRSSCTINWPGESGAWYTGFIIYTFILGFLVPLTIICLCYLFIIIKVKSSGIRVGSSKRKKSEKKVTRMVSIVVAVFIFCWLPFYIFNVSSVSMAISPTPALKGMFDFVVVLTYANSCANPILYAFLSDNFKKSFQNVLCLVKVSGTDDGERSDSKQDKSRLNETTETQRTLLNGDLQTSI
Test [2] deals with 320 non-olfactory GPCRs (Homo sapiens, UniProt P25103). As to conditions: receptor TACR1.
320 non-olfactory GPCRs (Homo sapiens, UniProt P25103), sequence (P25103 whole entry): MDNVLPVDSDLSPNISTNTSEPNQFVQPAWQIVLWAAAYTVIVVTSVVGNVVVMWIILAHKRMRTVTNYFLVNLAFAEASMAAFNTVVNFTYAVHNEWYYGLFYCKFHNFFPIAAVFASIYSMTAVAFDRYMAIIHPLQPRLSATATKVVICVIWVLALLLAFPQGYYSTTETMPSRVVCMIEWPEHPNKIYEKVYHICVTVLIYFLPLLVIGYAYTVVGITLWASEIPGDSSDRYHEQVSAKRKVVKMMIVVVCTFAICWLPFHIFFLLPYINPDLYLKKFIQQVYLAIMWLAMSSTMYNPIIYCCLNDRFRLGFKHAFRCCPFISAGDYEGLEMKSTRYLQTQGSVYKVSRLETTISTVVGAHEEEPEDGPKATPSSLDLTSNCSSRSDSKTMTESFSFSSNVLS
Test [3] deals with T1, 320 non-olfactory GPCRs (Homo sapiens, UniProt Q9UKP6).
T1 construct: expressed in transfected cells; host or cells: HTLA cells
T1 sequence (Q9UKP6 whole entry): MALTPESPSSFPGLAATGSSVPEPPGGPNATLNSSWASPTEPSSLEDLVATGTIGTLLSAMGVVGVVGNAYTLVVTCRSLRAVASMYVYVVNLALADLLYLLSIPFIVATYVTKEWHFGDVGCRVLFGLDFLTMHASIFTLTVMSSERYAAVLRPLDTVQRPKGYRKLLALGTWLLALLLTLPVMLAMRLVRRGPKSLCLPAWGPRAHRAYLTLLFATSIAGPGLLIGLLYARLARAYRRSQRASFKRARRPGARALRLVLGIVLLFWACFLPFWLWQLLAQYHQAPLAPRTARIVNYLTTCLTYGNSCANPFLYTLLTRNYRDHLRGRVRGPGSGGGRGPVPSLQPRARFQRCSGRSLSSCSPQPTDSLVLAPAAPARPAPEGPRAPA
As to conditions: receptor UTS2R.

Test [4] addresses 320 non-olfactory GPCRs (Homo sapiens, UniProt P47872). As to conditions: receptor SCTR.
Setting [5] is: Fig_5f, single replicate values.
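Wherever GPCRome agonism screen response is given: fold over basal response of each receptor without drug.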

320 non-olfactory GPCRs (Homo sapiens, UniProt P47872), sequence (P47872 23-440): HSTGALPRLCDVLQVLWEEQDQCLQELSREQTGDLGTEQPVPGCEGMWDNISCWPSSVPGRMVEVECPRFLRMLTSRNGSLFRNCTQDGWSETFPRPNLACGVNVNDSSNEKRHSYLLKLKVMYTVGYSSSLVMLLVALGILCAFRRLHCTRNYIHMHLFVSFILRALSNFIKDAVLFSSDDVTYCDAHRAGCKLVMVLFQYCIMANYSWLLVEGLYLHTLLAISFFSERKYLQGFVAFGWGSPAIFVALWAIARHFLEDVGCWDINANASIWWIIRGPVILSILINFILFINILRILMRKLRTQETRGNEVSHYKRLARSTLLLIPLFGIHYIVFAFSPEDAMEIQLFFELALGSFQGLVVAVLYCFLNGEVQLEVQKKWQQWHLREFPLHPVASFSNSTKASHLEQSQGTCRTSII

Turning to `CCOc1ccccc1CCC(C)NCC1(O)CCCCC1.Cl` (racemic) [Fig_5f], the “GPCRome screening signal at SSTR2” value at 320 non-olfactory GPCRs [1] (setting [5]) is 1.092 and 1.759 and 1.157 and 0.8246. Moreover, the “GPCRome screening signal at TACR1” value on 320 non-olfactory GPCRs [2] (setting [5]) was 1.29 and 1.225 and 0.9839 and 1.172. Moreover, the “GPCRome screening signal at UTS2R” value on 320 non-olfactory GPCRs [3] (setting [5]) was 1.327 and 1.1644 and 2.664 and 0.5292. Also, the “GPCRome screening signal at SCTR” value at 320 non-olfactory GPCRs [4] (setting [5]) is 1.0412 and 0.8528 and 0.88 and 1.015.

Turning to `CCOc1cccc2cc(C(C)NCC3(O)CCCCC3)oc12` (centres unmarked) [O4LE6], the “GPCRome agonism screen response” value on 320 non-olfactory GPCRs [1] (replicate values, Fig_4g) was 0.9255 and 0.9659 and 1.077 and 0.7883; on 320 non-olfactory GPCRs [2] (replicate values, Fig_4g), 1.178 and 0.9848 and 1.177 and 1.1855; on 320 non-olfactory GPCRs [3] (replicate values, Fig_4g), 1.786 and 2.312 and 1.032; on 320 non-olfactory GPCRs [4] (replicate values, Fig_4g) it was 0.9841 and 0.1649 and 1.315 and 1.208.
